According to patent US6573278B2, “Aryl sulfonamides and analogues thereof and their use in the treatment of neurodegenerative diseases” (Bayer Aktiengesellschaft, priority 1997, dated 2003):
Where a name gives a salt, the structure may show the parent alone. Marks after values point to notes of the source that are not given here. Values belong to the compound of their own block, whether it stands above or below them.

Key:
[1] = Rat hypothermia, agonism testing; format: in vivo; conditions: i.v.
Description: Five minutes after determination of the basal body temperature via an oesophageal temperature probe, the test substance is administered (i.v.). A control group receives only the solvent for the test substances, likewise i.v. The body temperature is measured 7.5, 15, 30 and 60 minutes after i.v. administration. The group size per dose is 5-7 animals (rats).
Rat hypothermia—Agonism testing

[2] = system: permanent focal cerebral ischaemia (MCA-O); assay: Permanent focal cerebral ischaemia in the rat (MCA-O); format: in vivo; conditions: infarct size after 7 days
Description: Permanent Focal Cerebral Ischaemia in the Rat (MCA-O)
Under isoflurane anaesthesia, the median cerebral artery is exposed on one side and the latter and its side branches are irreversibly sealed by means of electrocoagulation. As a result of the intervention a cerebral infarct is formed. During the operation, the body temperature of the animal is kept at 37° C. After wound closure and wearing off of the anaesthesia, the animals are again released into their cage. The administration of substance is carried out according to different time schemes and via different administration routes (i.v., i.p.) after occlusion. The infarct size is determined after 7 days. To do this, the brain is removed, worked up histologically and the infarct volume is determined with the aid of a computer-assisted analysis system.
Activity in the model of permanent focal cerebral ischaemia (MCA-O)

[3] = system: subdural haematoma in the rat (SDH); assay: Subdural haematoma in the rat (SDH); format: in vivo
Description: Subdural Haematoma in the Rat (SDH)
Under anaesthesia, the animal's own blood is injected subdurally on one side An infarct is formed under the haematoma. Substance administration is carried out according to different time schemes and via different administration routes (i.v., i.p.) The determination of the infarct size is carried out as described in the model of permanent focal ischaemia in the rat (MCA-O)
Activity in the model “subdural haematoma in the rat (SDH)”

[4] = molecular target: T1, rat CB1 receptor (Rattus norvegicus, UniProt P20272); assay: CB1 luciferase reporter gene test (CHOluc9 cells, forskolin-stimulated); format: cell-based; conditions: CHOluc9 cells with rat CB1, forskolin
T1 construct: contains an open reading frame of 1419 base pairs which corresponds to a protein of 473 amino acids; expressed in transfected cells; host or cells: CHOluc9 cells, stably transfected with plasmid CMV-RH (pRc/CMV)
Description: CB1—Luciferase Reporter Gene Test
1. Cloning of the Rat Cannabinoid Receptor CB1
Total RNA from rat brain (the tissue was taken from freshly killed animals and shock-frozen in liquid nitrogen) was isolated by acidic guanidinium thiocyanate/phenol/chloroform extraction (J. Biol. Chem. 1979, 18, 5294) and converted into cDNA by means of reverse transcriptase and random primers (in each case from Invitrogen). The polymerase chain reaction (PCR, conditions: 4 min 94° C., 1×; 1 min 94° C.; 2 min 53° C.; 1 min 72° C., 50 cycles; 1 min 94° C., 2 min 53° C., 4 min 72° C., 1×) was carried out in a Perkin Elmer thermocycler using the enzyme Taq polymerase (Perkin Elmer); the oligonucleotide primers employed (bases 99 to 122: 5′→3′, “down”; 1556-1575: 3′←5′, “up”) were derived from the published sequence of the rat cannabinoid receptor (Nature 1990, 346, 561) and were synthesized on a DNA synthesizer, model 1380 from Applied Biosystems. One part of the PCR reaction was separated in a 1% strength agarose gel in 1× TBE buffer and then stained with ethidium bromide, only one band having the expected length being visible (approximately 1.5 kb). This PCR product was subcloned into the TA cloning vector (Invitrogen) and the nucleotide sequence of the inserts was determined by the dideoxynucleotide chain termination reaction using T7DNA polymerase (Sequenase, USA/Amersham). The insert has a length of 1477 base pairs and contains an open reading frame of 1419 base pairs which corresponds to a protein of 473 amino acids. The number of base pairs, the position of the open reading frame and the number of amino acids agree with the published sequence. Computer analyses were carried out with the aid of the GCG software suite (Genetic Computer Group). The cDNA insert was subcloned into the expression vector pRc/CMV after partial digestion with HindIII and NotI (Biolabs). This construct (plasmid CMV-RH) was employed for transfection experiments.
2. Stable Transfection of the CHOluc9 Reporter Cells
CHOluc9 cells were cultured in 50% Dulbecco's modified Eagle medium/50% F-12 (DMEM/F12) which contained 10% foetal calf serum (FCS). Transfections were prepared in 6-well plates. 7.5 μg of Qiagen-purified CMV-RH plasmid DNA were added per […] with the DOTAP transfection system, corresponding to the experimental protocol of the manufacturer (Boehringer Mannheim). Transfected cells were selected using 1 mg/ml G418 and individual clones were obtained by limiting dilution in 96-well plates. Cell lines which express the cannabinoid receptor were identified for the inhibition of reporter gene expression after incubation with the cannabinoid receptor agonist, WIN-55,212-2, in the presence of forskolin. Several stable transfected and subcloned cell lines were further characterized by means of RT-PCR, as described under 1.
3. Test Optimization and Pharmacological Characterization of the CHOCB1 Reporter Cell Line
With the aim of high sensitivity and reproducibility, low variance and high suitability for carrying out on the robotic system, the luciferase test was optimized by variation of several test parameters, such as, for example, cell density, duration of the growth phase and the test incubation, forskolin concentration, medium composition. […]

[5] = molecular target: T2, CB1 receptor (rat cortex membranes) (Rattus norvegicus, UniProt P20272); assay: Binding studies on rat cortex membranes; conditions: read-out: Ki, affinity for the CB1 receptor (rat cortex membranes)
T2 construct: from tissue; host or cells: rat cortex membranes
Description: Binding Studies on Rat Cortex Membranes
Membrane protein is prepared from different tissues or from cells by standard methods. Buffer, labelled ligand, DMSO or test substance are pipetted together, then 100 μg of protein are added, and the mixture is well mixed and incubated in a water bath at 30° C. for 60 min. After expiry of the incubation time, the reaction is stopped by addition of ice-cold incubation buffer to each tube. After filtering off, washing is carried out with ¾ ml of incubation buffer. The filters are transferred to minivials and the radioactivity is determined in a scintillation counter. Affinity for the CB1 receptor (rat cortex membranes)

[6] = 0.1 mg/kg, i.v. bolus injections directly, 2 and 4 hours after occlusion
[7] = 0.03 mg/kg/h, i.v. continuous infusion directly up to 4 hours after occlusion

T1 sequence (P20272 whole entry): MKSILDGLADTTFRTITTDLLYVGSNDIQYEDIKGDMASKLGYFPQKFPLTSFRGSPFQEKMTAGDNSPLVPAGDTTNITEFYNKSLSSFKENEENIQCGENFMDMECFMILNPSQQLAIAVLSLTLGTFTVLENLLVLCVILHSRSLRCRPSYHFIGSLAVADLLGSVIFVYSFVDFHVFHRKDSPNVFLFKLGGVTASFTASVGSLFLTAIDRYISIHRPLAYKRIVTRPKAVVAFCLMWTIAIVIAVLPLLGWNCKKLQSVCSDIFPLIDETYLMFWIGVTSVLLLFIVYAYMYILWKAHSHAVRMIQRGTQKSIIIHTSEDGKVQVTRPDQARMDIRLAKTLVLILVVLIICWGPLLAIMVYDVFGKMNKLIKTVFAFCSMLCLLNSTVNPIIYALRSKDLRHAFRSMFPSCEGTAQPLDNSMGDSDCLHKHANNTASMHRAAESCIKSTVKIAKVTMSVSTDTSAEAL
T2 sequence (P20272 whole entry): as above

melting point: 95 °C
Structure (SMILES): CCCOS(=O)(=O)Nc1ccc(Oc2cccc3ccccc23)cc1

melting point: 135 to 137 °C
Structure (SMILES): CCCCCS(=O)(=O)Nc1ccc(Oc2cccc3c2CC(CO)(CO)C3)cc1

melting point: 113 to 115 °C
Structure (SMILES): CCCNS(=O)(=O)Nc1ccc(Oc2cccc3ccccc23)cc1

melting point: 80 °C
Structure (SMILES): CCCCC(=O)Nc1ccc(Oc2cccc3ccccc23)cc1

melting point: 162 °C
Structure (SMILES): CCCCCS(=O)(=O)N(c1ccc(Oc2cccc3c2CCNC3)cc1)S(=O)(=O)CCCCC (as salt: hydrochloride)

melting point: 187 °C
Structure (SMILES): CCCCCS(=O)(=O)Nc1ccc(Oc2cccc3c2CCN(CCCC)C3)cc1

melting point: 143 °C
Structure (SMILES): CCCCCS(=O)(=O)Oc1ccc(Oc2cccc3c2CCNC3)cc1

melting point: 138 to 139 °C
Structure (SMILES): CCCC[S+]([O-])Nc1ccc(Oc2cccc3ccccc23)cc1 (stereo not drawn)

The remaining lines, values behind:

Structure (SMILES): CCCCS(=O)(=O)Nc1ccc(S(=O)(=O)c2cccc3ccccc23)cc1
melting point: 180 °C

Structure (SMILES): O=S(=O)(Cc1ccccc1)Nc1ccc(Oc2cccc3ccccc23)nc1 [Example 33]
ED−1° C., effective dose for 1° C. body temperature reduction [1]: 0.6 ^b) mg/kg
% Reduction in the infarct volume [2, 6]: 33%
% Reduction in the infarct volume [3, 6]: 42%
melting point: 161 to 162 °C
IC50 [4]: 10 nM
Ki [5]: 420 nM

Structure (SMILES): CCCCCS(=O)(=O)Oc1ccc(Oc2cccc3ccccc23)cc1 [Example 99]
ED−1° C., effective dose for 1° C. body temperature reduction [1]: 0.6 ^b) mg/kg
IC50 [4]: 2.9 nM

Structure (SMILES): CCCCS(=O)(=O)Nc1ccc([S+]([O-])c2cccc3ccccc23)cc1 (stereo not drawn)
melting point: 161 °C

Structure (SMILES): O=S(=O)(NCc1ccccc1)c1ccc(Oc2cccc3ccccc23)cc1
melting point: 144 to 146 °C

Structure (SMILES): CCCCS(=O)(=O)Nc1ccc(Oc2cccc3ccccc23)cc1 [Example 1, 1-N-(1-Butylsulfonyl)amino-4-(naphthyl-1-oxy)benzene]
ED−1° C., effective dose for 1° C. body temperature reduction [1]: 1.0 ^b) mg/kg
% Reduction in the infarct volume [2, 7]: 35%
% Reduction in the infarct volume [3, 6]: 54%
% Reduction in the infarct volume ([3]; 1.0 mg/kg, i.v. bolus injections directly, 2 and 4 hours after occlusion): (84) %
melting point: 108 to 109 °C
IC50 [4]: 15 nM
Ki [5]: 590 nM

Structure (SMILES): O=S(=O)(CCCCl)Nc1ccc(Oc2cccc3ccccc23)cc1 [Example 65]
ED−1° C., effective dose for 1° C. body temperature reduction [1]: 1.0 ^b) mg/kg
% Reduction in the infarct volume ([2]; 0.01 mg/kg/h): (47) %
% Reduction in the infarct volume [2, 7]: 37%
% Reduction in the infarct volume [3, 6]: 53%
% Reduction in the infarct volume ([3]; 0.3 mg/kg/h, i.v. continuous infusion directly up to 4 hours post-trauma): (65) %
melting point: 115 °C
IC50 [4]: 13 nM
Ki [5]: 250 nM

Structure (SMILES): Nc1ccc(Oc2ccc(NS(=O)(=O)Cc3ccccc3)cc2)c2ccccc12 (as salt: hydrochloride)
melting point: 252 °C

Structure (SMILES): O=S(=O)(Cc1ccccc1)Nc1cccc(Oc2cccc3ccccc23)c1 [Example 51]
ED−1° C., effective dose for 1° C. body temperature reduction [1]: 0.1 ^b) mg/kg
% Reduction in the infarct volume [2, 6]: 24%
% Reduction in the infarct volume ([3]; 0.01 mg/kg/h, i.v. continuous infusion directly up to 4 hours post-trauma): 54%
melting point: 139.5 °C
IC50 [4]: 0.9 nM
Ki [5]: 41 nM

Structure (SMILES): CCC(=O)Nc1ccc(Oc2ccc(NS(=O)(=O)Cc3ccccc3)cc2)c2ccccc12
melting point: 180 °C
